Measured values: ChEMBL document CHEMBL5385881, “Design, synthesis, and discovery of Eudistomin Y derivatives as lysosome-targeted antiproliferation agents” (Eur J Med Chem, 2023)
Active and inactive are the calls of the source. The rule behind the calls is not given here.

Legend:
[1] = system: MDA-MB-231; assay: Induction of autophagy in human MDA-MB-231 cells assessed as fold increase in Lamp1 level at 15 uM measured after 6 hrs by Western blot analysis relative to control; type: functional
[2] = system: MDA-MB-231; assay: Cytotoxicity against human MDA-MB-231 cells assessed as cell inhibition measured after 72 hrs by MTT assay; type: functional, cell-based; conditions: MDA-MB-231, 72 h
[3] = system: MDA-MB-231; assay: Induction of cell cycle arrest in human MDA-MB-231 cells assessed as accumulation of cells at S phase at 20 uM incubated for 24 hrs by PI staining based flow cytometric analysis (reference value: 29.80%); type: functional
[4] = system: MDA-MB-231; assay: Induction of cell cycle arrest in human MDA-MB-231 cells assessed as accumulation of cells at G0/G1 phase at 50 uM incubated for 24 hrs by PI staining based flow cytometric analysis (reference value: 62.73%); type: functional
[5] = system: SGC-7901; assay: Induction of cell cycle arrest in human SGC-7901 cells assessed as accumulation of cells at G2/M phase at 10 uM incubated for 24 hrs by PI staining based flow cytometric analysis (reference value: 0.18%); type: functional
[6] = Reduction in Cyclin B1 level in human MDA-MB-231 cells assessed as fold change in presence of 3-MA at 15 uM measured after 72 hrs by Western blot analysis relative to control; type: functional
[7] = Drug uptake in human MDA-MB-231 cells assessed as accumulation by measuring fluorescent signals at 1 uM incubated for 1 hrs by confocal laser-scanning microscopic analysis; type: ADME, cell-based; conditions: mda-mb-231, 1 h
[8] = system: SGC-7901; assay: Induction of cell cycle arrest in human SGC-7901 cells assessed as accumulation of cells at S phase at 20 uM incubated for 24 hrs by PI staining based flow cytometric analysis (reference value: 40.15%); type: functional
[9] = Reduction in Cyclin B1 level in human MDA-MB-231 cells assessed as fold change at 5 uM measured after 72 hrs by Western blot analysis relative to control; type: functional
[10] = system: SGC-7901; assay: Induction of cell cycle arrest in human SGC-7901 cells assessed as accumulation of cells at G0/G1 phase at 5 uM incubated for 24 hrs by PI staining based flow cytometric analysis (reference value: 59.67%); type: functional
[11] = system: MDA-MB-231; assay: Induction of cell cycle arrest in human MDA-MB-231 cells assessed as accumulation of cells at S phase at 50 uM incubated for 24 hrs by PI staining based flow cytometric analysis (reference value: 29.80%); type: functional
[12] = system: SGC-7901; assay: Induction of cell cycle arrest in human SGC-7901 cells assessed as accumulation of cells at G2/M phase at 20 uM incubated for 24 hrs by PI staining based flow cytometric analysis (reference value: 0.18%); type: functional
[13] = system: MDA-MB-231; assay: Induction of cell cycle arrest in human MDA-MB-231 cells assessed as accumulation of cells at G0/G1 phase at 5 uM incubated for 24 hrs by PI staining based flow cytometric analysis (reference value: 62.73%); type: functional
[14] = system: MDA-MB-231; assay: Induction of autophagy in human MDA-MB-231 cells assessed as fold increase in LC3I/II protein level at 10 uM measured after 6 hrs by Western blot analysis relative to control; type: functional
[15] = system: MDA-MB-231; assay: Induction of cell cycle arrest in human MDA-MB-231 cells assessed as accumulation of cells at G0/G1 phase at 20 uM incubated for 24 hrs by PI staining based flow cytometric analysis (reference value: 62.73%); type: functional
[16] = Reduction in CDK1 level in human MDA-MB-231 cells assessed as fold change at 5 uM measured after 72 hrs by Western blot analysis relative to control; type: functional
[17] = Reduction in CDK1 level in human MDA-MB-231 cells assessed as fold change in presence of 3-MA at 15 uM measured after 72 hrs by Western blot analysis relative to control; type: functional
[18] = system: MDA-MB-231; assay: Induction of cell cycle arrest in human MDA-MB-231 cells assessed as accumulation of cells at S phase at 5 uM incubated for 24 hrs by PI staining based flow cytometric analysis (reference value: 29.80%); type: functional
[19] = system: SGC-7901; assay: Induction of cell cycle arrest in human SGC-7901 cells assessed as accumulation of cells at S phase at 5 uM incubated for 24 hrs by PI staining based flow cytometric analysis (reference value: 40.15%); type: functional
[20] = system: SGC-7901; assay: Induction of cell cycle arrest in human SGC-7901 cells assessed as accumulation of cells at G0/G1 phase at 50 uM incubated for 24 hrs by PI staining based flow cytometric analysis (reference value: 59.67%); type: functional
[21] = Reduction in Cyclin B1 level in human MDA-MB-231 cells assessed as fold change at 10 uM measured after 72 hrs by Western blot analysis relative to control; type: functional
[22] = system: SGC-7901; assay: Induction of cell cycle arrest in human SGC-7901 cells assessed as accumulation of cells at G0/G1 phase at 20 uM incubated for 24 hrs by PI staining based flow cytometric analysis (reference value: 59.67%); type: functional
[23] = Reduction in CDK1 level in human MDA-MB-231 cells assessed as fold change at 15 uM measured after 72 hrs by Western blot analysis relative to control; type: functional
[24] = system: MDA-MB-231; assay: Induction of cell cycle arrest in human MDA-MB-231 cells assessed as accumulation of cells at G2/M phase at 20 uM incubated for 24 hrs by PI staining based flow cytometric analysis (reference value: 7.47%); type: functional
[25] = system: MDA-MB-231; assay: Induction of autophagy in human MDA-MB-231 cells assessed as fold increase in LC3I/II protein level at 15 uM measured after 6 hrs by Western blot analysis relative to control; type: functional
[26] = system: HepG2; assay: Cytotoxicity against human HepG2 cells assessed as cell inhibition measured after 72 hrs by MTT assay; type: functional, cell-based; conditions: HepG2, 72 h
[27] = system: MDA-MB-231; assay: Induction of autophagy in human MDA-MB-231 cells assessed as fold increase in LC3I/II protein level at 5 uM measured after 6 hrs by Western blot analysis relative to control; type: functional
[28] = system: MDA-MB-231; assay: Induction of cell cycle arrest in human MDA-MB-231 cells assessed as accumulation of cells at G2/M phase at 50 uM incubated for 24 hrs by PI staining based flow cytometric analysis (reference value: 7.47%); type: functional
[29] = system: MDA-MB-231; assay: Induction of autophagy in human MDA-MB-231 cells assessed as increase in acidic vesicle formation by measuring fluorescence signal from lyso-red Tracker at 10 to 20 uM measured after 24 hrs by Lyso-RedTracker staining based confocal laser-scanning microscopic analysis; type: functional, cell-based; conditions: dose 10-20 µM
[30] = system: SGC-7901; assay: Induction of cell cycle arrest in human SGC-7901 cells assessed as accumulation of cells at S phase at 50 uM incubated for 24 hrs by PI staining based flow cytometric analysis (reference value: 40.15%); type: functional
[31] = system: SGC-7901; assay: Cytotoxicity against human SGC-7901 cells assessed as cell inhibition measured after 72 hrs by MTT assay; type: functional, cell-based; conditions: SGC-7901, 72 h
[32] = system: MDA-MB-231; assay: Antiproliferative activity against human MDA-MB-231 cells assessed as cell viability in presence of 3-MA at 10 to 50 uM measured after 72 hrs by MTT assay; type: functional, cell-based; conditions: dose 10-50 µM
[33] = Reduction in CDK1 level in human MDA-MB-231 cells assessed as fold change at 10 uM measured after 72 hrs by Western blot analysis relative to control; type: functional
[34] = system: MDA-MB-231; assay: Induction of cell cycle arrest in human MDA-MB-231 cells assessed as accumulation of cells at G2/M phase at 10 uM incubated for 24 hrs by PI staining based flow cytometric analysis (reference value: 7.47%); type: functional
[35] = system: MDA-MB-231; assay: Induction of autophagy in human MDA-MB-231 cells assessed as fold increase in Lamp1 level at 10 uM measured after 6 hrs by Western blot analysis relative to control; type: functional
[36] = system: LS180; assay: Cytotoxicity against human LS180 cells assessed as cell inhibition measured after 72 hrs by MTT assay; type: functional, cell-based; conditions: LS180, 72 h
[37] = system: MDA-MB-231; assay: Induction of autophagy in human MDA-MB-231 cells assessed as fold increase in Lamp1 level at 5 uM measured after 6 hrs by Western blot analysis relative to control; type: functional
[38] = Drug uptake in human MDA-MB-231 cells assessed as accumulation by measuring lysosome-specific fluorescent signals at 2 uM incubated for 1 hrs by confocal laser-scanning microscopic analysis; type: ADME, cell-based; conditions: mda-mb-231, 1 h
[39] = system: MDA-MB-231; assay: Induction of autophagy in human MDA-MB-231 cells assessed as increase in lysosomal membrane permeabilization by measuring red fluorescence in cytoplasm at 10 to 20 uM measured after 24 hrs by acridine orange (AO) staining assay; type: functional, cell-based; conditions: dose 10-20 µM
[40] = system: SGC-7901; assay: Induction of cell cycle arrest in human SGC-7901 cells assessed as accumulation of cells at S phase at 10 uM incubated for 24 hrs by PI staining based flow cytometric analysis (reference value: 40.15%); type: functional
[41] = system: SGC-7901; assay: Induction of cell cycle arrest in human SGC-7901 cells assessed as accumulation of cells at G2/M phase at 5 uM incubated for 24 hrs by PI staining based flow cytometric analysis (reference value: 0.18%); type: functional
[42] = Drug uptake in human MDA-MB-231 cells assessed as accumulation by measuring lysosome-specific fluorescent signals in presence of excess eudistomin Y1 at 1 uM incubated for 1 hrs by confocal laser-scanning microscopic analysis; type: ADME, cell-based; conditions: mda-mb-231, 1 h
[43] = system: MDA-MB-231; assay: Induction of cell cycle arrest in human MDA-MB-231 cells assessed as accumulation of cells at G0/G1 phase at 10 uM incubated for 24 hrs by PI staining based flow cytometric analysis (reference value: 62.73%); type: functional
[44] = system: SGC-7901; assay: Induction of cell cycle arrest in human SGC-7901 cells assessed as accumulation of cells at G2/M phase at 50 uM incubated for 24 hrs by PI staining based flow cytometric analysis (reference value: 0.18%); type: functional
[45] = system: MDA-MB-231; assay: Induction of cell cycle arrest in human MDA-MB-231 cells assessed as accumulation of cells at G2/M phase at 5 uM incubated for 24 hrs by PI staining based flow cytometric analysis (reference value: 7.47%); type: functional
[46] = Reduction in Cyclin B1 level in human MDA-MB-231 cells assessed as fold change at 15 uM measured after 72 hrs by Western blot analysis relative to control; type: functional
[47] = system: A549; assay: Cytotoxicity against human A549 cells assessed as cell inhibition measured after 72 hrs by MTT assay; type: functional, cell-based; conditions: A549, 72 h
[48] = system: MDA-MB-231; assay: Induction of cell cycle arrest in human MDA-MB-231 cells assessed as accumulation of cells at S phase at 10 uM incubated for 24 hrs by PI staining based flow cytometric analysis (reference value: 29.80%); type: functional
[49] = system: SGC-7901; assay: Induction of cell cycle arrest in human SGC-7901 cells assessed as accumulation of cells at G0/G1 phase at 10 uM incubated for 24 hrs by PI staining based flow cytometric analysis (reference value: 59.67%); type: functional

Structure (SMILES): COc1ccc(Cn2c3ccccc3c3ccnc(C(=O)c4ccccc4)c32)cc1
- fold change (FC) [1]: 1.39
- IC50 [2]: 20.5 µM
- Activity [3]: 22.49%
- Activity [4]: 12.51%
- Activity [5]: 56.48%
- fold change (FC) [6]: 0.8
- Drug uptake [7]: Active
- Activity [8]: 32.61%
- fold change (FC) [9]: 1.01
- Activity [10]: 41.36%
- Activity [11]: 11.55%
- Activity [12]: 60.49%
- Activity [13]: 64.23%
- fold change (FC) [14]: 1.39
- Activity [15]: 29.13%
- fold change (FC) [16]: 0.78
- fold change (FC) [17]: 0.78
- Activity [18]: 21.05%
- Activity [19]: 40.21%
- Activity [20]: 4.23%
- fold change (FC) [21]: 0.98
- Activity [22]: 6.9%
- fold change (FC) [23]: 0.5
- Activity [24]: 48.37%
- fold change (FC) [25]: 1.51
- IC50 [26]: 9.6 µM
- fold change (FC) [27]: 1.12
- Activity [28]: 75.93%
- Activity [29]: Active
- Activity [30]: 45.27%
- IC50 [31]: 12.1 µM
- Activity [32]: inactive
- fold change (FC) [33]: 0.52
- Activity [34]: 18.53%
- fold change (FC) [35]: 1.21
- IC50 [36]: 2.9 µM
- fold change (FC) [37]: 1.04
- Drug uptake [38]: Active
- Activity [39]: Active
- Activity [40]: 35.51%
- Activity [41]: 18.43%
- Drug uptake [42]: Not Active
- Activity [43]: 49.96%
- Activity [44]: 50.5%
- Activity [45]: 14.71%
- fold change (FC) [46]: 0.66
- IC50 [47]: 14.8 µM
- Activity [48]: 31.51%
- Activity [49]: 8%

Structure (SMILES): O=C(c1ccc(O)cc1)c1nccc2c1[nH]c1ccccc12 [EUDISTOMIN Y1]
- IC50 [2]: 129 µM
- IC50 [26]: 126 µM
- IC50 [31]: 119 µM
- IC50 [36]: 89.8 µM
- IC50 [47]: 71.9 µM

Structure (SMILES): Cn1c2ccccc2c2ccnc(C(=O)c3ccc(OCc4ccccc4)cc3)c21
- IC50 [2]: 19.8 µM
- IC50 [26]: 62.4 µM
- IC50 [31]: 40.2 µM
- IC50 [36]: 33.6 µM
- IC50 [47]: 34.2 µM
